Assays:
[1] = molecular target: T1, human MR (mineralocorticoid receptor) (Homo sapiens, UniProt P08235); assay: Steroid nuclear hormone receptor binding assay, MR; details: [3H]-aldosterone, HEK293 lysate overexpressing human MR
T1 construct: expressed in transfected cells; host or cells: HEK293 (293-MR lysate)
T1 sequence (P08235 1-984): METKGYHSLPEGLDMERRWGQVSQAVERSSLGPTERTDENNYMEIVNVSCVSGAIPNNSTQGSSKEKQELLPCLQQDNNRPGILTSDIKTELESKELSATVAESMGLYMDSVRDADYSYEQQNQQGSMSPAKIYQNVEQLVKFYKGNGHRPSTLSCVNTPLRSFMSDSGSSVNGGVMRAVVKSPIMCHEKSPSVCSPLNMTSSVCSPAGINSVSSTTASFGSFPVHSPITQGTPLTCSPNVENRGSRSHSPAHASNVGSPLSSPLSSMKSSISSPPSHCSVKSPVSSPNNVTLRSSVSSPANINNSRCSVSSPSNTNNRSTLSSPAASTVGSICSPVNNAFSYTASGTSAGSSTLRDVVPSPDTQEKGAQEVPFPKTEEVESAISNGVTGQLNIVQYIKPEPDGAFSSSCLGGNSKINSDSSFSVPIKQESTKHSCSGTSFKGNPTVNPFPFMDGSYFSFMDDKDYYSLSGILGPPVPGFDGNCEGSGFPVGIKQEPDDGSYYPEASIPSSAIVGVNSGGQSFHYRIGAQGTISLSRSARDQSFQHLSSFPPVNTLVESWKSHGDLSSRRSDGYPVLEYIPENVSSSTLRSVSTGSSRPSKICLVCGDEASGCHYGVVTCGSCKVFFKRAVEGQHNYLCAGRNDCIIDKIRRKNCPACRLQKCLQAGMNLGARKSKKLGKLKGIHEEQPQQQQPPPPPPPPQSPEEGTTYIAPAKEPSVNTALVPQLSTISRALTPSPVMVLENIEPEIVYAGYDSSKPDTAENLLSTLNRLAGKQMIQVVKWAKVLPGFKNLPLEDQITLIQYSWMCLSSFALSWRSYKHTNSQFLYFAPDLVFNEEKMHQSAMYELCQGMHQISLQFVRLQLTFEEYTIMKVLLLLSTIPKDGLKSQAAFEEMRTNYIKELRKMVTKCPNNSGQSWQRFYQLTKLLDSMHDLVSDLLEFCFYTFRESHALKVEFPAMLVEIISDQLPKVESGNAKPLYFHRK
Protocol: Cell lysates from human embryonic kidney HEK293 cells overexpressing human MR (mineralocorticoid receptor), GR (glucocorticoid receptor), AR (androgen receptor), or PR (progesterone receptor) are used for receptor-ligand competition binding assays to determine Ki values.
Briefly, steroid receptor competition binding assays are run in a buffer containing 20 mM HEPES buffer (pH=7.6), 0.2 mM EDTA, 75 mM NaCl, 1.5 mM MgCl2, 20% glycerol, 20 mM sodium molybdate, 0.2 mM DTT (dithiothreitol), 20 μg/mL aprotinin and 20 μg/mL leupeptin (assay buffer). Typically, steroid receptor binding assays include radio-labeled ligands, such as 0.25 nM [^3H]-aldosterone for MR binding, 0.7 nM [^3H]-dexamethasone for GR binding, 0.36 nM [^3H]-methyltrienolone for AR binding, and 0.29 nM [^3H]-methyltrienolone for PR binding, and either 20 μg 293-MR lysate, 20 μg 293-GR lysate, 22 μg 293-AR lysate, or 40 μg 293-PR lysate per well. Assays are typically run in 96-well format. Competing test compounds are added at various concentrations ranging from about 0.01 nM to 10 μM. Non-specific binding is determined in the presence of 500 nM aldosterone for MR binding, 500 nM dexamethasone for GR binding, or 500 nM methyltrienolone for AR and PR binding. […] After an incubation of 2 hours, plates are read in a Wallac Microbeta counter. […]

[2] = molecular target: T2, human mineralocorticoid receptor (MR) (Homo sapiens, UniProt P08235); assay: Nuclear hormone receptor panel screen (luciferase reporter, HEK293), MR; assay type: cell-based
T2 construct: expressed in transfected cells; host or cells: HEK293
T2 sequence (P08235 1-984): T1 sequence (P08235 1-984)
From the text: Aldosterone exerts it physiological effects through interaction with the mineralocorticoid receptor. Following cytoplasmic binding of aldosterone to MR, the ligand receptor complex translocates to the cell nucleus where it binds to hormone response elements on DNA to initiate expression of target genes. […] The solvents, reagents, and ligands employed in the functional assay are readily available from commercial sources, or can be prepared by one of ordinary skill in the art.
Human embryonic kidney HEK293 cells are transfected with steroid hormone receptor and reporter gene plasmids using a suitable transfection reagent such as Fugene™. […] After 24 hours incubation with test compounds, cells are lysed and luciferase activity is determined using standard techniques.
Data are fitted to a four parameter-fit logistic curve to determine EC50 values. […] IC50 values are determined similarly using antagonist mode assay data. In the antagonist mode, percent inhibitions are determined by comparing test compound activity in the presence of low concentration of agonist (0.08 nM aldosterone for MR, 0.25 nM dexamethasone for GR, 0.66 nM of methyltrienolone for AR, and 0.08 nM of promegestone for PR) to the response produced by the same low concentration of agonist in the absence of test compound.

## O=c1[nH]c2cc(/C=C3\c4ccccc4COc4cc(F)ccc43)ccc2n1[C@@H]1C[C@@H]2COCCN2C1 [Compound (I), 5-((E)-(3-fluorodibenzo[b,e]oxepin-11(6H)-ylidene)methyl)-1-((7R,8aR)-hexahydro-1H-pyrrolo[2,1-c][1,4]oxazin-7-yl)-1H-benzo[d]imidazol-2(3H)-one]
[1]
  Ki: ~0.4 nM
[2]; agonist mode
  EC50: > 10000 nM
[2]; antagonist mode, 0.08 nM aldosterone
  IC50: ~21 nM

Reference: patent US8658638B2, “Mineralocorticoid receptor antagonist and methods of use” (priority 2009, dated 2014)
